Assay results published in patent US6255273A, “Hydrofluoropolyether-based azeotropic or near azeotropic compositions” (Ausimont S.p.A., priority 1998, dated 2001).

Assays:
[1] = background; cited from earlier work
[2] = evaluation of the boiling temperature at the pressure of 1.013 bar (binary mixtures); type: physicochemical
[3] = Kauri-butanol index, modified ASTM D1133-86; type: physicochemical
Method: The solvent effect of the HFPE-based mixtures is evaluated by determination of the Kauri-butanol index, reported in Table 19, according to ASTM […]-86 method. […] The Kauri-butanol solution is stirred by a magnetic stirrer. The end titration point is identified in connection with a diffused turbidity which appears in the Kauri-butanol solution due to the resin separation.

[4] = Hydrofluoropolyether chemical-physical characteristics (Table 1); type: physicochemical; conditions: for BOILING TEMPERATURE / Evaporation latent heat: at 1.013 bar; for Isotherm evaporation speed / Surface pressure: at 20° C.; for Liquid density: at 25° C.; for Flammability in air: in air (% volume)
[5] = oily product removal from molded circuits, oil (4); conditions: 23° C.; methyl alcohol mixture 51° C., tDCE mixture 25° C., acetone mixture 66° C.; 5 min dipping
Method: (§1) The oily product removal capacity from molded circuits has been verified according to the following method: a known amount of an oily product is uniformly spread on the molded circuit surface having 35×19 mm sizes; 0.100 g of oil are spread on a single surface of the circuit, then the article is dipped in the solution to be tested.
(§2) After 5 minutes of dipping, the circuit is allowed to drie for further 5 minutes at room temperature so as to remove the solvent traces and then it is weighed again on an analytical balance.
(§3) The following oily products have been used:
4) Mineral-Clavus 32 oil by SHELL.
(§4) Tests are carried out at room temperature (23-250° C.) and tests at the boiling temperature of the solvent mixtures. In the latter case the solvent is placed in a vessel equipped with a refrigerant under reflux which recovers the vapour of the boiling solution.
(§5) In all the tests 30 ml of solvent solution have been used.

[6] = oily product removal from molded circuits, oil (1); conditions: 23° C.; methyl alcohol mixture 51° C., tDCE mixture 25° C., acetone mixture 66° C.; 5 min dipping
Method: as §1, §2, §3
1) Alkyl Benzene-Zerice S 46 oil by ESSO
as §4, §5

[7] = oily product removal from molded circuits, oil (3); conditions: 23° C.; methyl alcohol mixture 51° C., tDCE mixture 25° C., acetone mixture 66° C.; 5 min dipping
Method: as §1, §2, §3
3) Ester-Icematic SW 100 oil by CASTROL
as §4, §5

[8] = oily product removal from molded circuits, oil (2); conditions: 23° C.; methyl alcohol mixture 51° C., tDCE mixture 25° C., acetone mixture 66° C.; 5 min dipping
Method: as §1, §2, §3, §4, §5

rats [9] = test: Acute toxicity in rats by inhalation; type: in vivo; conditions: 4 hours
[10] = water removal from glass surfaces; conditions: with 600 ppm by weight surfactant; CFC 113 42° C., HCFC123 mixture 23° C., tDCE mixture 35° C.
Method: In a cylindrical container having a 46 cm diameter and a 56 cm height, equipped with a neoprene closing stopper (cover), 30 ml of the solution to be tested are introduced.
The compositions, indicated in Table 22, used for the water removal tests are prepared in a 50 ml flask and are heated in a thermostatic bath at a temperature of about 5° C. lower than the boiling temperature of the solution itself.
After heating the solution is transferred in the test container equipped with cover.
On a glass surface having 37×25×1 mm sizes, 0.015 g of water are deposited in the form of small drops.
The glass is placed on a metal frame which is used to carry out the article dipping in the liquid phase of the solution to be tested.
The container for the test is opened and the frame is slowly dipped into the solution; the frame upper part runs in a hole made in the rubber cover (cap) which closes the container.
When two minutes have elapsed, the frame is lifted from the liquid phase, by letting run the external end part through the hole present in the cover (cap); the glass will remain exposed to the solution vapours for one minute, then it is removed from the container and weighed.

rats [11] = test: Acute toxicity in rats per os; type: in vivo; parameters: unit not given here
[12] = Table 5, HCF2 OCF2 OCF2 H/acetone, number in label = % by wt. HCF2 OCF2 OCF2 H
[13] = Table 12, HCF2 OCF2 CF2 OCF2 H/acetone, number in label = % by wt. HCF2 OCF2 CF2 OCF2 H
[14] = Table 7, HCF2 OCF2 OCF2 H/HFC 356 ffa, number in label = % by wt. HCF2 OCF2 OCF2 H
[15] = Table 10, HCF2 OCF2 OCF2 H/tDCE, number in label = % by wt. HCF2 OCF2 OCF2 H
[16] = Table 15, HCF2 OCF2 CF2 OCF2 H/tDCE, number in label = % by wt. HCF2 OCF2 CF2 OCF2 H
[17] = Table 2, HCF2 OCF2 OCF2 H/HCFC 123, number in label = % by wt. HCF2 OCF2 OCF2 H
[18] = Table 13, HCF2 OCF2 CF2 OCF2 H/methyl alcohol, number in label = % by wt. HCF2 OCF2 CF2 OCF2 H
[19] = Table 6, HCF2 OCF2 OCF2 H/HFC 365 mfc, number in label = % by wt. HCF2 OCF2 OCF2 H
[20] = Table 8, HCF2 OCF2 OCF2 H/metoxymethyl methyl ether, number in label = % by wt. HCF2 OCF2 OCF2 H
[21] = Table 16, HCF2 OCF2 CF2 OCF2 H/ethyl alcohol, number in label = % by wt. HCF2 OCF2 CF2 OCF2 H

For `CC(F)(Cl)Cl` [HCFC 141b], which flammability [1] is on record?
Its flammability is “moderately flammable”.

What does the source list for `CC(C)=O` [acetone, dimethyl ketone, reference compound]?
BOILING TEMPERATURE [2, 12]: 56.50 °C; BOILING TEMPERATURE [2, 13]: 56.50 °C

With `FC(F)(F)CCC(F)(F)F` [HFC 356 ffa, 1,1,1,4,4,4-hexafluorobutane, reference compound] as the compound, how does the “BOILING TEMPERATURE” value [2, 14] read?
The value was 24.71 °C.

What does the source list for `Cl/C=C/Cl` [tDCE, trans 1,2-dichloroethylene, reference compound]?
BOILING TEMPERATURE [2, 15]: 46.70 °C; BOILING TEMPERATURE [2, 16]: 46.79 °C

What does the source list for `FC(F)(Cl)C(F)(Cl)Cl` [CFC 113, 1,1,2-trichloro-1,2,2-trifluoroethane]?
flammability [1]: non flammable; stability [1]: stable; toxicity [1]: non toxic; Kauri-butanol index [3]: 31; BOILING TEMPERATURE [4]: 47.55 °C; Evaporation latent heat [4]: 144 kJ/kg; Isotherm evaporation speed [4]: 1 mg/min; Surface pressure [4]: 18.1 dynes/cm; Liquid density [4]: 1.56 g/mL; Flammability in air [4]: non; Percentage of removed oil, oil (4) Mineral-Clavus 32 [5]: 100 % by weight; Percentage of removed oil, oil (1) Alkyl Benzene-Zerice S 46 [6]: 100 % by weight; Percentage of removed oil, oil (3) Ester-Icematic SW 100 [7]: 100 % by weight; Percentage of removed oil, oil (2) FluoroSilicone-FS 1265 [8]: 99.5 % by weight; Acute toxicity in rats by inhalation, LC50 (rats [9]): 50000 ppmv/4 hours; removed water [10]: 100 % by weight

With `FC(F)(F)C(Cl)Cl` [HCFC 123, 1,1-dichloro-2,2,2-trifluoroethane, reference compound] as the compound, how does the “BOILING TEMPERATURE” value [2, 17] read?
The value was 27.54 °C.

With `CO` [methyl alcohol, reference compound] as the compound, how does the “BOILING TEMPERATURE” value [2, 18] read?
Its value is 65.00 °C.

Which “BOILING TEMPERATURE” value [2, 19] does the source give for `CC(F)(F)CC(F)(F)F` [HFC 365 mfc, 1,1,1,3,3-pentafluorobutane, reference compound] here?
The value was 40.09 °C.

With `COCOC` [metoxymethyl methyl ether, methoxymethyl methyl ether, reference compound] as the compound, how does the “BOILING TEMPERATURE” value [2, 20] read?
The value was 41.96 °C.

For `FC(F)OC(F)(F)OC(F)F` [HFPE1, difluoromethoxy-bis(difluoromethyl ether)], which “Acute toxicity in rats per os, LD50” value (rats [11]) is on record?
The value was greater than 5000.

And the BOILING TEMPERATURE [4]?
Its BOILING TEMPERATURE is 35.39 °C.

And the Evaporation latent heat [4]?
The Evaporation latent heat was 165 kJ/kg.

And the Isotherm evaporation speed [4]?
Its Isotherm evaporation speed is 1.5 mg/min.

What about the Surface pressure [4] of the same compound?
Its Surface pressure is 14.0 dynes/cm.

What about the Liquid density [4] of the same compound?
The Liquid density was 1.54 g/mL.

And the Flammability in air [4]?
The Flammability in air was “non flammable”.

What about the “BOILING TEMPERATURE” value [2, 17] of the same compound?
The value was 35.39 °C.

What about the “BOILING TEMPERATURE” value ([2]; Table 3, HCF2 OCF2 OCF2 H/n-pentane, number in label = % by weight HCF2 OCF2 OCF2 H) of the same compound?
Its value is 35.39 °C.

And the “BOILING TEMPERATURE” value ([2]; Table 4, HCF2 OCF2 OCF2 H/iso-pentane, number in label = % by wt. HCF2 OCF2 OCF2 H)?
Its value is 35.39 °C.

What about the “BOILING TEMPERATURE” value [2, 12] of the same compound?
The value was 35.39 °C.

What about the “BOILING TEMPERATURE” value [2, 19] of the same compound?
Its value is 35.39 °C.

And the “BOILING TEMPERATURE” value [2, 14]?
Its value is 35.39 °C.

What about the “BOILING TEMPERATURE” value [2, 20] of the same compound?
Its value is 35.39 °C.

What about the “BOILING TEMPERATURE” value ([2]; Table 9, HCF2 OCF2 OCF2 H/n-hexane, number in label = % by wt. HCF2 OCF2 OCF2 H) of the same compound?
The value was 35.39 °C.

And the “BOILING TEMPERATURE” value [2, 15]?
The value was 35.39 °C.

What about the “Acute toxicity in rats by inhalation, LC50” value (rats [9]) of the same compound?
The value was greater than 32000 ppmv/4 hours.

For `CCO` [ethyl alcohol, reference compound], which “BOILING TEMPERATURE” value [2, 21] is on record?
Its value is 78.50 °C.

For `FC(F)OC(F)(F)C(F)(F)OC(F)F` [HFPE2, 1-difluoromethoxy-1,1,2,2-tetrafluoroethyl difluoromethyl ether], which “Acute toxicity in rats per os, LD50” value (rats [11]) is on record?
Its value is greater than 5000.

What about the BOILING TEMPERATURE [4] of the same compound?
Its BOILING TEMPERATURE is 58.21 °C.

What about the Evaporation latent heat [4] of the same compound?
The Evaporation latent heat was 139 kJ/kg.

What about the Isotherm evaporation speed [4] of the same compound?
Its Isotherm evaporation speed is 0.6 mg/min.

What about the Surface pressure [4] of the same compound?
The Surface pressure was 15.5 dynes/cm.

What about the Liquid density [4] of the same compound?
Its Liquid density is 1.60 g/mL.

And the Flammability in air [4]?
Its Flammability in air is “non flammable”.

What about the “BOILING TEMPERATURE” value ([2]; Table 11, HCF2 OCF2 CF2 OCF2 H/n-pentane, number in label = % by wt. HCF2 OCF2 CF2 OCF2 H) of the same compound?
The value was 58.21 °C.

And the “BOILING TEMPERATURE” value [2, 13]?
Its value is 58.21 °C.

What about the “BOILING TEMPERATURE” value [2, 18] of the same compound?
Its value is 58.21 °C.

And the “BOILING TEMPERATURE” value ([2]; Table 14, HCF2 OCF2 CF2 OCF2 H/n-hexane, number in label = % by wt. HCF2 OCF2 CF2 OCF2 H)?
Its value is 58.21 °C.

And the “BOILING TEMPERATURE” value [2, 16]?
The value was 58.21 °C.

And the “BOILING TEMPERATURE” value [2, 21]?
Its value is 58.21 °C.

And the “Acute toxicity in rats by inhalation, LC50” value (rats [9])?
The value was greater than 32000 ppmv/4 hours.
